The structures appear in SMILES notation.

For data set [1] the following is noted: PO 6.25~50 mg/kg; cited from earlier work.
Data set [2] in a line: Intestinal permeability in Ussing chamber. Type of data set: in vitro ADME, mice. As to conditions: mouse, pH 7.4; range over intestinal segments, n = 3; read-out: permeability of marker compounds. The protocol:
The small intestines were isolated from fasted mice under isoflurane anesthesia (1–3% with oxygen gas flow) and dissected into three parts, the jejunum, upper ileum, and lower ileum. […] The intestinal permeability of 2-QBA was assessed by adding 0.5 mL of HBSS containing 20 μM of 2-QBA on the donor side and 0.5 mL of fresh HBSS on the receiver side. Then, a 100 μL aliquot was withdrawn from the receiver side every 30 min for 2 h and an equal volume of pre-warmed fresh HBSS was added to replenish the lost volume. To analyze the 2-QBA, 100 μL aliquots were mixed with 4 volumes of IS solution (1 ng/mL berberine in acetonitrile). The mixture was vigorously vortexed for 5 min and then centrifuged at 13,000× g for 5 min. The supernatant was transferred to autosampler vials. Subsequently, a 3 μL aliquot was injected into the LC-MS/MS system.

Consider `O=c1c(-c2ccc(O)cc2)coc2cc(O)cc(O)c12` [genistein], for which, in data set [1], the “time within which multiple peaks appeared” value is reported as no more than 6 h. With `CC(C)NCC(O)COc1cccc2ccccc12` (centres unmarked) [propranolol, reference compound], the Papp in data set [2] lay within 10 to 22.5 ×10⁻⁶ cm/s.

The record behind these values is publication PMC11279551, “Pharmacokinetics and Enterohepatic Circulation of 2-(Quinoline-8-carboxamido)benzoic Acid (2-QBA) in Mice” (Pharmaceutics, 2024).
